Measurements published in ChEMBL document CHEMBL3102719, “Ligands of the neuropeptide Y Y2 receptor” (Bioorg Med Chem Lett, 2014).
Non-standard residues stand in square brackets, D forms with d. Residues, ends and D or L forms follow the SMILES beside them. *: point of attachment. Palmitoyl = CCCCCCCCCCCCCCCC(=O)*; Ahx = NCCCCCC(=O)O

Legend:
[1] = target: T1, Neuropeptide Y receptor type 2 (Homo sapiens, UniProt P49146); assay: Displacement of [125I]-PYY from human NPYY2 receptor
T1 sequence (P49146 whole entry): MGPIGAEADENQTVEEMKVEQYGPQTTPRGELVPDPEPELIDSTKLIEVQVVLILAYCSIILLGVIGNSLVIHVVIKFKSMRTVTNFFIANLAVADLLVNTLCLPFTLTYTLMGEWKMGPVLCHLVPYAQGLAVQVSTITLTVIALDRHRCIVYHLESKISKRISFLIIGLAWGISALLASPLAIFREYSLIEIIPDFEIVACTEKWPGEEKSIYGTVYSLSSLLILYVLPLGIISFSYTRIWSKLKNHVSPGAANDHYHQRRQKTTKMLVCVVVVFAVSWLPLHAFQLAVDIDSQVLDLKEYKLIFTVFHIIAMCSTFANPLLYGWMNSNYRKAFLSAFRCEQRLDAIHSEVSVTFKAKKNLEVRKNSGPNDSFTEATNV

[2] = target: T2, Neuropeptide Y receptor type 2 (Homo sapiens) (UniProt P49146); assay: Antagonist activity at NPYY2 receptor (unknown origin)
T2 sequence (whole entry): T1 sequence (P49146 whole entry)

Mu-type opioid receptor = Mu-type opioid receptor (Homo sapiens, UniProt P35372); assay: Binding affinity to mu opioid receptor (unknown origin)
[3] = target: T3, Alpha-1A adrenergic receptor (Homo sapiens, UniProt P35348); assay: Binding affinity to adrenergic alpha1A receptor (unknown origin)
T3 sequence (P35348 whole entry): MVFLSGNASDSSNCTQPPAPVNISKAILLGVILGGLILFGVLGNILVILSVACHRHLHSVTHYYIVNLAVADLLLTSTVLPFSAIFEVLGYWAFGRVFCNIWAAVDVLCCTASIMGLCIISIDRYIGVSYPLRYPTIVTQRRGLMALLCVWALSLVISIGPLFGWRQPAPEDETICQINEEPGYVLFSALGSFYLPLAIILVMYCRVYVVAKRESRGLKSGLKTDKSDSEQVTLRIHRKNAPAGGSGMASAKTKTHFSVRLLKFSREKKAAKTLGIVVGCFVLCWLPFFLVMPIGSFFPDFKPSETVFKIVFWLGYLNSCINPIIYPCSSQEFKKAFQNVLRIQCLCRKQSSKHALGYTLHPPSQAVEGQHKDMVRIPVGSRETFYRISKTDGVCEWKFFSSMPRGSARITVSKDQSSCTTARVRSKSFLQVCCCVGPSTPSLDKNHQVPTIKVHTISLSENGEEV

[4] = target: Kappa-type opioid receptor (Homo sapiens, UniProt P41145); assay: Binding affinity to kappa opioid receptor (unknown origin)
Mus musculus = assay: Anticonvulsant activity in ip dosed mouse assessed as protection against 6 Hz psychomotor seizure; assay type: functional
[5] = target: T1, Neuropeptide Y receptor type 2; assay: Displacement of [125I]-PYY from NPYY2 receptor (unknown origin)
Homo sapiens [6] = species: Homo sapiens; assay: Selectivity ratio of NPYY1 receptor (unknown origin) to NPYY2 receptor (unknown origin)
[7] = Half life in rat at 10 mg/kg, sc; assay type: ADME, organism-based; set-up: dose 10 mg/kg, route subcutaneous; details: in vivo
[8] = Cmax in rat at 10 mg/kg, sc; assay type: ADME, organism-based; set-up: dose 10 mg/kg, route subcutaneous; details: in vivo
Homo sapiens [9] = species: Homo sapiens; assay: Selectivity ratio of NPYY4 receptor (unknown origin) to NPYY2 receptor (unknown origin)
Homo sapiens [10] = species: Homo sapiens; assay: Selectivity ratio of NPYY5 receptor (unknown origin) to NPYY2 receptor (unknown origin)
[11] = Oral bioavailability in rat at 10 mg/kg; assay type: ADME, organism-based; details: in vivo
[12] = Bioavailability in rat at 10 mg/kg, sc; assay type: ADME, organism-based; details: in vivo
[13] = target: T4, Neuropeptide Y receptor type 5 (Homo sapiens, UniProt Q15761); assay: Binding affinity to NPYY5 receptor (unknown origin)
T4 sequence (Q15761 whole entry): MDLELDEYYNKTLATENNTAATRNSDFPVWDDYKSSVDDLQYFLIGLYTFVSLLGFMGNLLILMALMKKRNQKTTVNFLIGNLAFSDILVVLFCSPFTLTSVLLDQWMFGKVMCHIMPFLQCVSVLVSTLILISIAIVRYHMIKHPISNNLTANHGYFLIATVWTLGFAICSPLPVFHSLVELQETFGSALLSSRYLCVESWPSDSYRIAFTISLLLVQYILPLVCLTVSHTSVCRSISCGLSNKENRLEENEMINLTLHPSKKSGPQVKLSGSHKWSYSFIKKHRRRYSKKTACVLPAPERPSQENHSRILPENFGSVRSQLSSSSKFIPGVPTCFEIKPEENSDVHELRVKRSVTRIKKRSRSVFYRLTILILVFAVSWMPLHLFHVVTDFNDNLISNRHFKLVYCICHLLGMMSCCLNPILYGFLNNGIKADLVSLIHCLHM

[14] = target: T1, Neuropeptide Y receptor type 2; assay: Binding affinity to NPYY2 receptor (unknown origin) preincubated for 20 mins
[15] = target: T1, Neuropeptide Y receptor type 2; assay: Binding affinity to NPYY2 receptor (unknown origin)

Kappa-type opioid receptor, sequence (P41145 whole entry): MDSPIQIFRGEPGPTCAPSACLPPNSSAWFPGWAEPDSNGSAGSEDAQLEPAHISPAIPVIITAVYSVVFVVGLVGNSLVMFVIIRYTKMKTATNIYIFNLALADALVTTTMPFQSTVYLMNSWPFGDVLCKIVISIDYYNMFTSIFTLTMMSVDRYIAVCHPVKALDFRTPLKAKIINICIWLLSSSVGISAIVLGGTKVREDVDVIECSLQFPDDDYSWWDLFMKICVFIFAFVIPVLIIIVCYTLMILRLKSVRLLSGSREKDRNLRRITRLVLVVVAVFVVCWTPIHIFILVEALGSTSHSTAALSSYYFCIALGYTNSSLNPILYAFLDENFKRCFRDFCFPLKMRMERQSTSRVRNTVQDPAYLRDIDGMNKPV
Mu-type opioid receptor, sequence (P35372 whole entry): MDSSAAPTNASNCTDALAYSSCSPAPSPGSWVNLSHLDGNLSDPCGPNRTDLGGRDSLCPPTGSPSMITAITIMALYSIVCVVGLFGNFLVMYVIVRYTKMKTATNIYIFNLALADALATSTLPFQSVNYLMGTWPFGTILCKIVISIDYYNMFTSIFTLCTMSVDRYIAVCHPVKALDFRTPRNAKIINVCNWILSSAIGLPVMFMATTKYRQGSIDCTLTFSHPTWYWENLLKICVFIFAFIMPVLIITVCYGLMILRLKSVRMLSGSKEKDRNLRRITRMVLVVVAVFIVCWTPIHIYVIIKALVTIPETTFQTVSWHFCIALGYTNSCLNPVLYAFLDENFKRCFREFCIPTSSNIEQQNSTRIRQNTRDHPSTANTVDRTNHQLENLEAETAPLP

Molecule: CCC(CC)C(=O)Nc1ccc(N2CCN(C(C(=O)N(CC)CC)c3ccc(Cl)cc3)CC2)c(F)c1 (stereo not given)
- IC50 [1]: 100 nM

Molecule: CCC(CC)C(=O)Nc1ccc(N2CCN(C(c3cccc(F)c3)c3ncco3)CC2)c(C#N)c1 (stereo not given)
- pKb [2]: 7.9

Molecule: CCN(CC)C(=O)C(c1ccccc1)N1CCN(c2ccc(-c3cc(=O)n(C(C)C)[nH]3)cc2F)CC1 (stereo not given)
- IC50 [1]: 340 nM

Molecule: CCc1noc(C(c2ccccc2)N2CCN(c3ccc(NC(=O)C(CC)CC)cc3F)CC2)n1 (stereo not given)
- pKb [2]: 7.45

Molecule: CCC(CC)C(=O)Nc1ccc(N2CCN(C(c3ccccc3)c3ncno3)CC2)c(F)c1 (stereo not given)
- IC50 [1]: 240 nM

Molecule: CCC(CC)C(=O)Nc1ccc(N2CCN(C(c3ccccc3)c3nnc(C(C)C)o3)CC2)c(F)c1 (stereo not given)
- IC50 [1]: 290 nM

Molecule: CCN(CC)C(=O)C(c1ccccc1)C1CCN(c2ccc(NC(=O)C3CCOC3)cc2F)CC1 (stereo not given)
- IC50 [1]: 25 nM

Molecule: N=C(N)NCCCC(NC(=O)CC1(CC(=O)N2CCN(C3c4ccccc4NC(=O)c4ccccc43)CC2)CCCC1)C(=O)NCCn1c(=O)n(-c2ccccc2)n(-c2ccccc2)c1=O (single isomer, unassigned)
- Ki (Mu-type opioid receptor): 323 nM
- Ki [3]: 360 nM
- Ki [4]: 948 nM

Molecule: CCCCCCCCCCCCCCCC(=O)NCCCC[C@H](NC(=O)[C@H](CCCCN)NC(=O)[C@H](CCCCN)NC(=O)[C@H](Cc1ccc(O)cc1)NC(C)=O)C(=O)NCCCCCC(=O)N[C@@H](C)C(=O)N[C@@H](CCCNC(=N)N)C(=O)N[C@@H](Cc1cnc[nH]1)C(=O)N[C@@H](Cc1ccc(O)cc1)C(=O)N[C@H](C(=O)N[C@@H](CC(N)=O)C(=O)N[C@@H](CC(C)C)C(=O)N[C@H](C(=O)N[C@H](C(=O)N[C@@H](CCCNC(=N)N)C(=O)N[C@@H](CCC(N)=O)C(=O)N[C@@H](CCCNC(=N)N)C(=O)N[C@@H](Cc1ccc(O)cc1)C(N)=O)[C@@H](C)O)[C@@H](C)CC)[C@@H](C)CC (Ac-YKKK(Palmitoyl)[Ahx]ARHYINLITRQRY-NH2)
- ED50 (Mus musculus): 1.1 mg/kg

Molecule: CCc1nc(C(c2ccccc2)N2CCN(c3ccc(NC(=O)C(CC)CC)cc3F)CC2)no1 (stereo not given)
- IC50 [1]: 150 nM

Molecule: CCN(CC)C(=O)C(c1ccccc1)N1CCN(c2ccc(-c3cccnc3)cc2F)CC1 (stereo not given)
- IC50 [1]: 740 nM

Molecule: CCC(CC)C(=O)Nc1ccc(N2CCN(C(c3ccccc3)c3ncccn3)CC2)c(F)c1 (stereo not given)
- IC50 [1]: 33 nM

Molecule: CCC(CC)C(=O)Nc1ccc(N2CCN(C(c3ccccc3)c3nc(-c4ccccc4)no3)CC2)c(F)c1 (stereo not given)
- IC50 [1]: 720 nM

Molecule: CN(C)CCCN(C(=O)[C@H]1C[C@@H]1c1ccccc1)c1ccccc1SCc1ccccc1 (relative stereo)
- IC50 [5]: 3700 nM

Molecule: CCC(CC)C(=O)Nc1ccc(N2CCN(C(C(=O)N(CC)CC)c3ccc(O)cc3)CC2)c(F)c1 (stereo not given)
- IC50 [1]: 100 nM

Molecule: CCN(CC)C(=O)C(c1ccccc1)N1CCN(c2ccc(NC(=O)c3c(C)cnn3CC)cc2F)CC1 (stereo not given)
- IC50 [1]: 35 nM

Molecule: CC(=O)N1CCc2ccc(N(C/C=C\c3ccccc3)C3CCN(Cc4ccccc4)CC3)cc21
- IC50 [1]: 22000 nM

Molecule: CC(=O)N1CCc2ccc(N(CC#Cc3ccccc3)C3CCN(Cc4ccccc4)CC3)cc21
- IC50 [1]: 9200 nM

Molecule: CCC(CC)C(=O)Nc1ccc(N2CCN(C(c3ccccc3)C3CCOC3)CC2)c(F)c1 (stereo not given)
- IC50 [1]: 34 nM
- pKb [2]: 7.2

Molecule: CCN(CC)C(=O)C(c1ccccc1)N1CCN(c2ccc(NC(=O)c3ccccc3-c3cccnc3)cc2F)CC1 (stereo not given)
- Selectivity ratio (Homo sapiens [6]): > 100
- half-life [7]: 49.8 min
- Cmax [8]: 4.35 µM
- Selectivity ratio (Homo sapiens [9]): > 100
- pKb [2]: 8.04
- Selectivity ratio (Homo sapiens [10]): > 100
- bioavailability [11]: 6%
- bioavailability [12]: 100%

Molecule: Ac-LRHYLNLLTRQRY-NH2
- Ki [13]: > 1000 nM

Molecule: CCC(CC)C(=O)Nc1ccc(N2CCN(C(c3ccccc3)c3nc(C(C)C)no3)CC2)c(F)c1 (stereo not given)
- IC50 [1]: 170 nM

Molecule: CCN(CC)C(=O)C(c1ccccc1)N1CCN(c2ccc(-c3c(C)noc3C)cc2F)CC1 (stereo not given)
- IC50 [1]: 10000 nM

Molecule: CN(C)CCCN(C(=O)c1cc2ccccc2s1)c1ccccc1Cc1ccccc1
- IC50 [5]: 450 nM

Molecule: CCC(CC)C(=O)Nc1ccc(N2CCN(C(c3ccccc3)c3cc(C)no3)CC2)c(F)c1 (stereo not given)
- IC50 [1]: 38 nM
- pKb [2]: 7.5

Molecule: CCC(CC)C(=O)Nc1ccc(N2CCN(C(c3ccccc3)c3nc(C)no3)CC2)c(F)c1 (stereo not given)
- pKb [2]: 7.4

Molecule: CCN(CC)C(=O)C(c1ccccc1)N1CCN(c2ccc(NC(=O)c3c(C)cnn3C(C)(C)C)cc2F)CC1 (stereo not given)
- IC50 [1]: 300 nM

Molecule: CCC(=O)NCCNC(=O)CCCC(=O)NC(=N)NCCC[C@H](NC(=O)CC1(CC(=O)N2CCN(C3c4ccccc4NC(=O)c4ccccc43)CC2)CCCC1)C(=O)NCCn1c(=O)n(-c2ccccc2)n(-c2ccccc2)c1=O (stereo not given in full)
- Ki [14]: 9.9 nM

Molecule: CCCCCCCCCCCCCCCC(=O)NCCCC[C@H](NC(=O)[C@H](CCCCN)NC(=O)[C@H](CCCCN)NC(=O)[C@H](Cc1ccc(O)cc1)NC(C)=O)C(=O)NCCCCCC(=O)N[C@@H](C)C(=O)N[C@@H](CCCN=C(N)N)C(=O)N[C@@H](Cc1cnc[nH]1)C(=O)N[C@@H](Cc1ccc(O)cc1)C(=O)N[C@H](C(=O)N[C@@H](CC(N)=O)C(=O)N[C@@H](CC(C)C)C(=O)N[C@H](C(=O)N[C@H](C(=O)N[C@@H](CCCN=C(N)N)C(=O)N[C@@H](CCC(N)=O)C(=O)N[C@@H](CCCN=C(N)N)C(=O)N[C@@H](Cc1ccc(O)cc1)C(N)=O)[C@@H](C)O)[C@@H](C)CC)[C@@H](C)CC (Ac-YKKK(Palmitoyl)[Ahx]ARHYINLITRQRY-NH2)
- Ki [15]: 26.1 nM
